Experimental data reported in US10221163B2 (priority 2015, dated 2019).
Where two headings read alike, the source gives them in different places.

Legend:
[1] = system: Pseudomonas aeruginosa efflux− (MB9799), IMP-1; type: cell-based; conditions: C, D serine β-lactamase inhibitor closely related to relebactam; for P. aeruginosa expressing IMP-1, efflux − (MB9799) MITC95: concentration restoring susceptibility to imipenem at 2 μg/mL in the presence of a class A; for Concentration of metallo-β-lactamase inhibitor which restores susceptibility of efflux − (MB9799) strain to imipenem: imipenem at 2 μg/mL, in the presence of a class A
Summary of the method: (§1)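 P. aeruginosa PAO1-derived IMP-1 strains, efflux+ MB9798 and efflux− MB9799, tested by standard microbroth MIC with imipenem and/or ceftazidime fixed, usually at CLSI breakpoint, plus fixed class A/C β-lactamase inhibitor against AmpC. Inhibitor titrated; concentration restoring susceptibility recorded; MB9798/MB9799 fold difference indicates efflux.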

NDM-1 = NDM-1 (Klebsiella pneumoniae, UniProt C7C422); test: biochemical; type: biochemical; conditions: fluorescence assay, CCF2-FA substrate, 1 pM enzyme, 2 hours at 25° C.; read-out: NDM-1 IC50
Summary of the method: (§2)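 Test compound, enzyme and the FRET cephalosporin substrate CCF2-FA are incubated together for 2 hours at 25° C. Cleavage is followed by fluorescence, and IC50 values are derived from semi-logarithmic inhibition curves fitted with a 4-parameter model.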

IMP-1 = IMP-1 (Serratia marcescens, UniProt P52699); test: biochemical; type: biochemical; conditions: fluorescence assay, CCF2-FA substrate, 2 pM enzyme, 2 hours at 25° C.; read-out: IMP-1 IC50
Summary of the method: as §2

[2] = system: Escherichia coli expressing NDM-1 (CLB30005, CLB30016); type: cell-based; conditions: with imipenem 1 μg/ml; for Escherichia coli expressing NDM-1 (CLB30016) MITC95: 95% inhibition of bacterial growth; for Escherichia coli MITC95: NDM-1 strain, 95% inhibition of growth
Summary of the method: (§3)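 Growth by absorbance after 22–24 h at 35°C defined the read-out, with imipenem fixed at 1 μg/ml alongside compound. Inocula came from overnight blood-agar colonies at 35°C, resuspended in saline and diluted 1:100 in 1.1×CAMHB.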

[3] = system: Serratia marcescens expressing IMP-1 (CL5741); type: cell-based; conditions: for Serratia marcescens expressing IMP-1 (CL5741) MITC95: with imipenem 1 μg/ml, 95% inhibition of bacterial growth; for Serratia marcescens MITC95: IMP-1 strain CL5741, with imipenem 1 μg/ml, 95% inhibition of growth
Summary of the method: as §3

[4] = system: Klebsiella pneumoniae expressing VIM-1 (IHMA599644); type: cell-based; conditions: for Klebsiella pneumoniae expressing VIM-1 (IHMA599644) MITC95: with imipenem 1 μg/ml, 95% inhibition of bacterial growth; for Klebsiella pneumoniae MITC95: VIM-1 strain IHMA599644, with imipenem 1 μg/ml, 95% inhibition of growth
Summary of the method: as §3

VIM-1 = VIM-1 (Pseudomonas aeruginosa (strain ATCC 15692 / DSM 22644 / CIP 104116 / JCM 14847 / LMG 12228 / 1C / PRS 101 / PAO1), UniProt A0A0F7KYQ8); test: biochemical; conditions: CCF2-FA substrate, 30 pM enzyme, 2 hours at 25° C.
Summary of the method: as §2

[5] = system: Pseudomonas aeruginosa efflux+ (MB9798), IMP-1; type: cell-based; parameters: Concentration of metallo-β-lactamase inhibitor which restores susceptibility of efflux + (MB9798) strain to imipenem: unit not given here; conditions: C, D serine β-lactamase inhibitor closely related to relebactam; for P. aeruginosa expressing IMP-1, efflux + (MB9798) MITC95: concentration restoring susceptibility to imipenem at 2 μg/mL in the presence of a class A; for Concentration of metallo-β-lactamase inhibitor which restores susceptibility of efflux + (MB9798) strain to imipenem: imipenem at 2 μg/mL, in the presence of a class A
Summary of the method: as §1

[6] = system: Pseudomonas aeruginosa MB9798 vs MB9799
Summary of the method: as §1

[7] = fluorescence assay, read-out: VIM-1 IC50
[8] = ratio MITC95 PA_9798/MITC95 PA_9799
[9] = fold difference between efflux+ (MB9798) and efflux− (MB9799) strains, imipenem at 2 μg/mL

Sequence of IMP-1 (P52699 whole entry, looked up, species assumed): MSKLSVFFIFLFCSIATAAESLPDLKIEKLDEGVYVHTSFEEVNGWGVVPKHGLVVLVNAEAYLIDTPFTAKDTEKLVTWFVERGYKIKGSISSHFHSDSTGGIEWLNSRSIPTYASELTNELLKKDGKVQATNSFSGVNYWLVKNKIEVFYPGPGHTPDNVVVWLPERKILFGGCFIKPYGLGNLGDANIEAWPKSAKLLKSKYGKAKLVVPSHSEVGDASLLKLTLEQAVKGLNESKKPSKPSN
Sequence of NDM-1 (C7C422 whole entry, looked up, species assumed): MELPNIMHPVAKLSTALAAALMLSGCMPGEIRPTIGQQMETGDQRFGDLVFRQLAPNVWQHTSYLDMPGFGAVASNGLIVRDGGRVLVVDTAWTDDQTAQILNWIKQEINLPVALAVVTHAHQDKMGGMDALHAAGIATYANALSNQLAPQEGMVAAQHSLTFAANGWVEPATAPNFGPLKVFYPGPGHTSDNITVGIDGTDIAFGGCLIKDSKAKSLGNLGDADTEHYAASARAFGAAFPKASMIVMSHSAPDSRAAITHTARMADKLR

## NCCNS(=O)(=O)c1ccc(-c2cccc3cn[nH]c23)c(-c2nn[nH]n2)c1S(N)(=O)=O [Example 9, N^1-(2-aminoethyl)-4-(1H-indazol-7-yl)-3-(2H-tetrazol-5-yl)benzene-1,2-disulfonamide]
[1]
  P. aeruginosa expressing IMP-1, efflux − (MB9799) MITC95: 0.7813 µM
NDM-1
  IC50: 0.0844 nM
IMP-1
  IC50: 0.171 nM
[2]
  Escherichia coli expressing NDM-1 (CLB30016) MITC95: 0.7813 µM
[3]
  Serratia marcescens expressing IMP-1 (CL5741) MITC95: 1.563 µM
[4]
  Klebsiella pneumoniae expressing VIM-1 (IHMA599644) MITC95: 1.563 µM
VIM-1; [7]
  IC50: 0.133 nM
[5]
  P. aeruginosa expressing IMP-1, efflux + (MB9798) MITC95: 0.3906 µM
[6]; [8]
  Efflux ratio: 0.50

## NCc1ncc(-c2cccc(-c3ccc(S(=O)(=O)N[C@@H]4CCNC4)c(S(N)(=O)=O)c3-c3nn[nH]n3)c2)[nH]1 [Example 278, (R)-3′-(2-(aminomethyl)-1H-imidazol-5-yl)-N4-(pyrrolidin-3-yl)-2-(2H-tetrazol-5-yl)-[1,1′-biphenyl]-3,4-disulfonamide]
[1]
  P. aeruginosa expressing IMP-1, efflux − (MB9799) MITC95: 0.7813 µM
NDM-1
  IC50: 0.0566 nM
IMP-1
  IC50: 0.64 nM
[2]
  Escherichia coli MITC95: 0.7813 µM
[3]
  Serratia marcescens MITC95: 0.7813 µM
[4]
  Klebsiella pneumoniae MITC95: 0.7813 µM
VIM-1; VIM-1 IC50, fluorescence assay
  IC50: 0.144 nM
[5]
  P. aeruginosa expressing IMP-1, efflux + (MB9798) MITC95: 0.7813 µM
[6]; [8]
  Efflux ratio: 1.00

## C[C@@H](N)CNS(=O)(=O)c1ccc(-c2ccc3nccn3c2)c(-c2nn[nH]n2)c1S(N)(=O)=O [Example 423]
[1]
  Concentration of metallo-β-lactamase inhibitor which restores susceptibility of efflux − (MB9799) strain to imipenem: 0.7813
NDM-1
  IC50: 0.303 nM
IMP-1
  IC50: 1.15 nM
[2]
  Escherichia coli MITC95: 0.3906 µM
[3]
  Serratia marcescens MITC95: 0.7813 µM
[4]
  Klebsiella pneumoniae MITC95: 1.563 µM
VIM-1; VIM-1 IC50, fluorescence assay
  IC50: 0.18 nM
[5]
  Concentration of metallo-β-lactamase inhibitor which restores susceptibility of efflux + (MB9798) strain to imipenem: 3.125
[6]; [9]
  Efflux ratio: 4.00

## C[C@@H](CN)NS(=O)(=O)c1ccc(-c2ccc(N)nc2)c(-c2nn[nH]n2)c1S(N)(=O)=O [Example 394]
[1]
  Concentration of metallo-β-lactamase inhibitor which restores susceptibility of efflux − (MB9799) strain to imipenem: 1.563
NDM-1
  IC50: 1.89 nM
IMP-1
  IC50: 2 nM
[2]
  Escherichia coli MITC95: 0.3906 µM
[3]
  Serratia marcescens MITC95: 1.563 µM
[4]
  Klebsiella pneumoniae MITC95: 3.125 µM
VIM-1; [7]
  IC50: 1.24 nM
[5]
  Concentration of metallo-β-lactamase inhibitor which restores susceptibility of efflux + (MB9798) strain to imipenem: 3.125
[6]; [9]
  Efflux ratio: 2.00

## Nc1nc2c(-c3ccc(S(=O)(=O)N[C@H]4CNC[C@H]4O)c(S(N)(=O)=O)c3-c3nnn[nH]3)cccc2[nH]1 [Example 168, 4-(2-amino-1H-benzo[d]imidazol-4-yl)-N^1-((3S,4R)-4-hydroxypyrrolidin-3-yl)-3-(1H-tetrazol-5-yl)benzene-1,2-disulfonamide]
[1]
  P. aeruginosa expressing IMP-1, efflux − (MB9799) MITC95: 0.543 µM
NDM-1
  IC50: 0.0515 nM
IMP-1
  IC50: 0.544 nM
[2]
  Escherichia coli expressing NDM-1 (CLB30016) MITC95: 0.375 µM
[3]
  Serratia marcescens expressing IMP-1 (CL5741) MITC95: 0.668 µM
[4]
  Klebsiella pneumoniae expressing VIM-1 (IHMA599644) MITC95: 0.8906 µM
VIM-1; VIM-1 IC50, fluorescence assay
  IC50: 0.16 nM
[5]
  P. aeruginosa expressing IMP-1, efflux + (MB9798) MITC95: 0.3828 µM
[6]; [8]
  Efflux ratio: 0.70

## C[C@H](N)CNS(=O)(=O)c1ccc(-c2cccc3[nH]c(N)nc23)c(-c2nn[nH]n2)c1S(N)(=O)=O [Example 184, 4-(2-amino-1H-benzo[d]imidazol-4-yl)-N1-((S)-2-aminopropyl)-3-(2H-tetrazol-5-yl)benzene-1,2-disulfonamide]
[1]
  P. aeruginosa expressing IMP-1, efflux − (MB9799) MITC95: 0.7813 µM
NDM-1
  IC50: 0.0347 nM
IMP-1
  IC50: 0.673 nM
[2]
  Escherichia coli expressing NDM-1 (CLB30016) MITC95: 0.3906 µM
[3]
  Serratia marcescens expressing IMP-1 (CL5741) MITC95: 0.7813 µM
[4]
  Klebsiella pneumoniae expressing VIM-1 (IHMA599644) MITC95: 0.7813 µM
VIM-1; [7]
  IC50: 0.189 nM
[5]
  P. aeruginosa expressing IMP-1, efflux + (MB9798) MITC95: 0.7813 µM
[6]; [8]
  Efflux ratio: 1.00
